# Measurements published in US20220146526A1, “METHOD FOR EVALUATING SAMPLE, ANALYSIS METHOD, METHOD FOR DETECTING DEGRADED SAMPLE, MARKER FOR DETECTING DEGRADED BLOOD PLASMA SAMPLE, AND MARKER FOR DETECTING DEGRADED SERUM SAMPLE” (SHIMADZU CORPORATION, priority 2019, published 2022).
# Where “and” joins values, the source holds several entries; their conditions need not be identical. Identical values can stand only once.
# How the values were obtained:
# Format in all cases: physicochemical, human
# [1] = GC/MS of serum sample: time from blood collection to centrifugation (Table G); settings: for Rate of increase or decrease: detection intensity relative to 1 at 15 minutes; for Rate of increase or decrease / Increase or decrease: blood collection to centrifugation; for Increase or decrease: detection intensity
# Description: (§1) After standing, the blood sample was subjected to centrifugation under a condition of room temperature, 3500 rpm, and 5 minutes. […] After centrifugation, the blood-collecting vessel was left to stand at room temperature, and the serum was isolated during this time. Here, in order to investigate how the detection intensity of molecules contained in the sample was affected in cases where the time during which the blood-collecting vessel was left at room temperature was set to 1 hour and 6 hours as compared to that in a case where the time was set to 30 minutes, preparations were performed under the respective conditions of 30 minutes, 1 hour, and 6 hours. The obtained serum sample was frozen and stored. Here, in order to investigate how the detection intensity of molecules contained in the sample was affected in cases where freezing and thawing was performed 4 times, 6 times, and 10 times after freezing as compared to that in a case where freezing and thawing was performed 2 times after freezing, freezing and thawing was performed under the respective conditions of 2, 4, 6, and 10 times.
# (§2) Frozen blood plasma samples and serum samples were subjected to GC/MS or LC/MS. In GC/MS, the blood plasma samples and serum samples were subjected to methoxymation and trimethylsilylation and then introduced to GC-MS.
# (§3) GC/MS was conducted using GCMS·TQ8040 (Shimadzu Corporation) that was a GC·MS equipped with AOC·20i (Shimadzu Corporation) as an autosampler.
# (§4) Column: BPX5 (inner diameter of 0.25 mm, length of 30 m, and film thickness of 0.25 μm) (SGE)
# (§5) Column temperature: maintained at 60° C. for 2 minutes, then raised at 15° C./min, and maintained at 330° C. for 3 minutes.
# (§6) Inlet temperature: 250° C.
# (§7) Carrier gas control mode: constant linear velocity of 39.0 cm/sec
# (§8) Sample introduction method: split (split ratio of 30:1) Injection volume: 1 μL
# (§9) Ionization method: electron ionization
# (§10) Ionization current: 60 μA
# (§11) Interface temperature: 280° C.
# (§12) Ion source temperature: 200° C.
# (§13) Mode: multiple reaction monitoring (MRM)
# The rate of increase or decrease in Table G is the value of detection intensity relative to 1 that is the detection intensity in a case where the time from blood collection to centrifugation is set to 15 minutes.
# [2] = GC/MS of serum sample: time from centrifugation to isolation (Table H); set-up: key to Rate of increase or decrease / Rate of increase or decrease (first value, increase): detection intensity relative to 1 at 30 min centrifugation-to-isolation; settings: for Rate of increase or decrease: detection intensity relative to 1 at 30 minutes; for Increase or decrease: detection intensity
# Description: as §1, §2, §3, §4, §5, §6, §7, §8, §9, §10, §11, §12, §13
# The rate of increase or decrease in Table H is the value of detection intensity relative to 1 that is the detection intensity in a case where the time from centrifugation to isolation is set to 30 minutes.
# [3] = GC/MS of serum sample: number of times of freezing and thawing (Table I); set-up: key to Rate of increase or decrease / Rate of increase or decrease (first value, increase): detection intensity relative to 2 freeze-thaw cycles = 1; settings: for Rate of increase or decrease: detection intensity relative to 1 at 2 times; for Number of times when compound is affected: detection intensity changed by 30% or more vs 2 times of freezing and thawing
# Description: as §1, §2, §3, §4, §5, §6, §7, §8, §9, §10, §11, §12, §13
# The rate of increase or decrease in Table I is the value of detection intensity relative to 1 that is the detection intensity in a case where the number of times of freezing and thawing is set to 2 times.
# [4] = serum, GC/MS, freezing and thawing 10 times
# [5] = detection intensity, serum, GC/MS, freezing and thawing 10 times vs 2 times
# [6] = serum, GC/MS, freezing and thawing 4 times
# [7] = detection intensity, serum, GC/MS, freezing and thawing 4 times vs 2 times
# [8] = serum, GC/MS, freezing and thawing 6 times
# [9] = detection intensity, serum, GC/MS, freezing and thawing 6 times vs 2 times
# [10] = 10 times of freezing and thawing
# [11] = serum sample, GC/MS, detection intensity vs 2 times of freezing and thawing
SMILES,Rate of increase or decrease ([1]; after 4 hours),Increase or decrease ([1]; after 4 hours vs 15 minutes),Rate of increase or decrease ([2]; after 6 hours),Increase or decrease ([2]; after 6 hours vs 30 minutes),Rate of increase or decrease ([2]; after 1 hour),Increase or decrease ([2]; after 1 hour vs 30 minutes),"Rate of increase or decrease [3, 6]","Increase or decrease [3, 7]",Rate of increase or decrease ([1]; after 8 hours),Increase or decrease ([1]; after 8 hours vs 15 minutes),further results
O=C(O)C(=O)CO [3-Hydroxypyruvic acid],0.58,Decrease,1.88,Increase,–,–,–,–,–,–,"Rate of increase or decrease [3, 4]: 4.59; Increase or decrease [3, 5]: Increase"
O=C(CO)[C@H](O)CO [Erythrulose],0.58 and 0.55,Decrease,–,–,1.31,Increase,0.45 and 0.46,Decrease,–,–,–
O=C1O[C@H](CO)[C@@H](O)[C@H]1O [Ribonic acid lactone],–,–,–,–,–,Different from individual,1.33,Increase,0.68,Decrease,"Rate of increase or decrease (second value, decrease) ([2]; different from individual to individual, individuals with decrease, relative to 1 at 30 minutes, after 1 hour): 0.57; Rate of increase or decrease (first value, increase) ([2]; different from individual to individual, individuals with increase, relative to 1 at 30 minutes, after 1 hour): 1.71"
O=C(O)CCCCC(=O)O [Adipic acid],–,Different from individual,–,–,2.50,Increase,–,–,–,–,"Rate of increase or decrease (second value, decrease) ([1]; different from individual to individual, individuals with decrease, relative to 1 at 15 minutes, collection to centrifugation, after 4 hours): 0.61; Rate of increase or decrease (first value, increase) ([1]; different from individual to individual, individuals with increase, relative to 1 at 15 minutes, collection to centrifugation, after 4 hours): 2.06; Rate of increase or decrease [3, 4]: 2.14; Increase or decrease [3, 5]: Increase"
CC(=O)CC(=O)O [Acetoacetic acid],–,–,1.39,Increase,–,–,1.39,Increase,1.46,Increase,–
NCCCCCN [Cadaverine],1.38,Increase,–,–,0.50,Decrease,–,–,–,–,"Rate of increase or decrease [3, 8]: 2.31; Increase or decrease [3, 9]: Increase"
NCCCCN [Putrescine],–,–,–,–,1.54,Increase,–,–,1.44,Increase,"Rate of increase or decrease [3, 10]: 1.77; Number of times when compound is affected ([3]; serum sample, GC/MS): 10 times; Increase or decrease [3, 11]: Increase"
CC(O)(CC(=O)O)C(=O)O (centres unmarked) [Citramalic acid],2.01,Increase,–,–,0.33,Decrease,–,–,–,–,"Rate of increase or decrease [3, 10]: 0.53; Number of times when compound is affected ([3]; serum sample, GC/MS): 10 times; Increase or decrease [3, 11]: Decrease"
OC[C@@H](O)[C@@H](O)[C@@H](O)CO [Ribitol],–,–,–,–,2.32,Increase,–,–,1.44,Increase,–
O=C(O)[C@@H](O)[C@H](O)CO [Threonic acid],–,–,1.45,Increase,–,–,0.56,Decrease,0.55,Decrease,–
NCCc1ccc(O)cc1 [Tyramine],2.37,Increase,3.34,Increase,–,–,–,–,–,–,"Rate of increase or decrease [3, 10]: 3.78; Number of times when compound is affected ([3]; serum sample, GC/MS): 10 times; Increase or decrease [3, 11]: Increase"
O=c1cc[nH]c(=O)[nH]1 [Uracil],1.38,Increase,4.84,Increase,–,–,–,–,–,–,"Rate of increase or decrease [3, 8]: 1.54; Increase or decrease [3, 9]: Increase"
O=C(O)CCCc1ccccc1 [Phenylbutyric acid],–,–,–,–,1.75,Increase,2.61,Increase,–,–,Rate of increase or decrease ([1]; after 12 hours): 2.17; Increase or decrease ([1]; after 12 hours vs 15 minutes): Increase
O=C(O)c1ccccc1 [Benzoic acid],1.30,Decrease,–,–,0.69,Decrease,–,–,–,–,"Rate of increase or decrease [3, 10]: 3.86; Number of times when compound is affected ([3]; serum sample, GC/MS): 10 times; Increase or decrease [3, 11]: Increase"
CCCCCCC(N)C(=O)O (centres unmarked) [2-Aminooctanoic acid],1.60,Increase,–,–,1.67,Increase,2.80,Increase,–,–,–
O=C(O)CCc1c[nH]c2ccccc12 [3-Indolepropionic acid],1.93,Increase,1.54,Increase,–,–,–,–,–,–,"Increase or decrease [3, 5]: Different from individual; Rate of increase or decrease (second value, decrease) ([3]; different from individual to individual, individuals with decrease, relative to 1 at 2 times, serum, GC/MS, freezing and thawing 10 times): 0.67; Rate of increase or decrease (first value, increase) ([3]; different from individual to individual, individuals with increase, relative to 1 at 2 times, serum, GC/MS, freezing and thawing 10 times): 2.21"
